PubChem BioAssay (NCI)
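Following 48 hours of exposure in 96-well plates, responses at five concentrations were used to interpolate endpoints linearly. Definition used: TGI = concentration required for complete inhibition of growth.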

Key:
Assay in all cases: inhibition of tumour cell growth, NCI panel, 48 h
[1] = test system: HOP-62 NSCLC
[2] = test system: NCI-H460 lung
[3] = test system: MDA-MB-231 breast
[4] = test system: M14 melanoma
[5] = test system: NCI/ADR-RES ovarian
[6] = test system: BT-549 breast
[7] = test system: SR leukemia
[8] = test system: HCC-2998 colon
[9] = test system: SK-OV-3 ovarian
[10] = test system: OVCAR-5 ovarian
[11] = test system: SF-539 CNS
[12] = test system: TK-10 renal
[13] = test system: PC-3 prostate
[14] = test system: LOX IMVI melanoma
[15] = test system: SNB-19 CNS
[16] = test system: SN12C renal
[17] = test system: SNB-75 CNS
[18] = test system: CCRF-CEM leukemia
[19] = test system: MDA-N
[20] = test system: UO-31 renal
[21] = test system: MALME-3M melanoma
[22] = test system: SK-MEL-2 melanoma
[23] = test system: NCI-H23 lung
[24] = test system: HL-60(TB) leukemia
[25] = test system: MCF7 breast
[26] = test system: OVCAR-8 ovarian
[27] = test system: T-47D breast
[28] = test system: SF-295 CNS
[29] = test system: 786-0 renal
[30] = test system: SK-MEL-28 melanoma
[31] = test system: K-562 leukemia
[32] = test system: ACHN renal
[33] = test system: NCI-H226 lung
[34] = test system: SW-620 colon
[35] = test system: NCI-H522 lung
[36] = test system: HCT-15 colon
[37] = test system: RXF 393 renal
[38] = test system: KM12 colon
[39] = test system: OVCAR-3 ovarian
[40] = test system: HT29 colon
[41] = test system: SF-268 CNS
[42] = test system: IGROV1 ovarian
[43] = test system: UACC-257 melanoma
[44] = test system: HS 578T breast
[45] = test system: A498 renal
[46] = test system: CAKI-1 renal
[47] = test system: SK-MEL-5 melanoma
[48] = test system: RPMI-8226 leukemia
[49] = test system: MOLT-4 leukemia
[50] = test system: A549 NSCLC
[51] = test system: MDA-MB-435
[52] = test system: DU-145 prostate
[53] = test system: UACC-62 melanoma
[54] = test system: EKVX NSCLC
[55] = test system: COLO 205 colon
[56] = test system: HCT-116 colon
[57] = test system: OVCAR-4 ovarian
[58] = test system: U251 CNS

Measured: TGI

Cc1c(C#N)c(N)n(C2OCC(O)C(O)C2O)c(=S)c1C#N (stereo not given)
not listed: [54] | [55] | [56] | [57] | [58]
> 100 µM: all other assays above

N#CC(=N)c1ncn(-c2ccccc2N)c1N
not listed: [37]
> 100 µM: all other assays above
